The values that follow come from patent publication EP0004516A2, “Pharmaceutical compositions active on the gastro-intestinal motricity” (SCIENCE UNION ET Cie SOCIETE FRANCAISE DE RECHERCHE MEDICALE, priority 1978, dated 1979).

The test system of experiment [1] is ulcère produit par la contrainte. The experiment in a line: Restraint ulcer protection. The class given is in vivo, animal.
For experiment [2], the system named is troubles moteurs gastro-duodénaux (dyspepsie hyposthénique en rapport avec un état dépressif psychasthénique). The experiment is described as follows: Double-blind cross-over clinical and external digestive electromyographic study versus placebo (Exemple IV). The class given is in vivo, humaine. On the procedure: Effet normalisateur des compositions à base d'acide 7-[(3-chloro 6-methyl 5,5-dioxo 6,11-dihydrodibenzo (c,f) thiazepin 1,2-11-yl) amino] heptanoique sur les troubles moteurs gastro-duodénaux en clinique humaine.
Evaluer l'efficacité du principe actif dans trois posologies différentes : • .
Les malades ont été divisés en deux groupes de 12 sujets • . Un 1er groupe de 12 cas a reçu successivement et en cross- over 1 comprimé par jour de 12,5mg et de 25mg de PA. (Un malade de ce groupe a abandonné le traitement) • . Un 2ème groupe de 12 cas a reçu successivement et en cross- over 2 comprimés par jour, soit 2 x 12.
Chaque sujet avait au minimum : • 1. Un syndrome dyspeptique hyposténique, avec • - ballonnements • - pesanteur • - somnolence post-prandiale • - brûlures et / ou douleurs épigastriques • - états nauséeux • 2. Ln état dépressif psycnasténique, avec • - dépression • - inhibition psycho-motrice • - asthénie • - anxiété psychique et / ou somatisée • - troubles du sommeil (difficulté à l'endormissement ou réveil précoce) • 3. Un électromyogramme digestif externe pathologique, avec un retard d'apparition des ondes gastriques après le repas (d'au moins 2 heures).
• . Selon la gravité clinique, de 0 à 3 • . Pour l'électromyogramme digestif, chez un sujet normal, les ondes gastriques apparaissent dès l'ingestion d'un repas équilibré et persistent pendant 5 heures en moyenne. Cette situation était côtée 0.
Chez le dyspeptique hyposténique, il existe une absence d'ondes gastriques dans la phase post-prandiale, qui peut durer plus de 3 heures. Cette situation était côtée 2.
Si, après le traitement, la sidération diminuait, elle était côtée 1.
L'examen clinique était répété après chaque passage du produit actif, ou de placebc, soit 5 fois par milade.
En ce qui concerne les tracés EMG, nous avions prévu quatre enregistrements par sujet : avant traitement, après chaque passage de Principe Actif, et après le dernier passage Placebo.

For the next experiment, the system named is fibre lisse. The experiment is described as follows: Anti-serotonin action shown directly on smooth fibre.
Experiment [3] has as its system musculature lisse tube digestif. The experiment in a line: Pharmacological studies: antispasmodic action and restoration of digestive smooth muscle motility.
The mark [4] stands for this setting: 1 x 25 mg/jour, 15 jours, Groupe I, 11 cas.
Where [5] appears, read: 1 x 12,5 mg/jour, 15 jours, Groupe I, 11 cas.
The mark [6] stands for this setting: 2 x 25mg/jour, 15 jours, Groupe II, 12 cas.
The mark [7] stands for this setting: 2 x 12,5mg/jour, 15 jours, Groupe II, 12 cas.

With `CN1c2ccccc2C(NCCCCCCC(=O)O)c2ccc(Cl)cc2S1(=O)=O` (racemic) [principe actif, acide 7-[(3-chloro 6-méthyl 5,5-dioxo 6,11-dihydrodibenzo (c,f)thiazepin 1,2-11-yl)amino] heptanoique], the “effet anti-secrétoire” value in experiment [1] (accompanying the protective effect) is reported as “ne s'accompagne pas d'effet anti-secrétoire”. Besides, in experiment [1] (in vivo), the “protection contre l'ulcère produit par la contrainte” value is listed as “protégeait l'animal contre l'ulcère produit par la contrainte”. In experiment [2] (setting [4]), the “absence d'effet” value is listed as 18,2% and the “très bon effet thérapeutique global” value was 81,8%. In experiment [2] (setting [5]), the activité moyenne is 54,6% and the “bonne activité (très nette amélioration de l'ensemble des symptômes digestifs, psychiques, ainsi que des tracés EMG externes)” value is given as 45,4%. For the same compound, in experiment [2] (setting [6]), the activité bonne is reported as 83,3% and the activité moyenne is reported as 16,6%. In addition, in experiment [2] (setting [7]), the “Bon effet thérapeutique global” value is 66,6% and the effet moyen is listed as 33,3%. Further, the “activité globale par rapport au placebo” value in experiment [2] (12,5mg, 25mg et 50mg, both groups) is “toujours été nettement supérieur au placebo”. In the experiment with fibre lisse, the “action anti sérotonine” value was “très importante”. In experiment [3], the action antispasmodique entry is given as “importante” and the “restauration de la motricité (atonie de la musculature lisse)” value is reported as “capables de restaurer une motricité constante et bien coordonnée”.
